These compounds were tested against full-length human LSD1 (Homo sapiens (Human), UniProt O60341) (assay: In vitro enzyme inhibition assay LSD-1 (TR-FRET)). Conditions: H3K4me1-biotin peptide.
Format: biochemical
Description: This assay determines the ability of a test compound to inhibit LSD1 demethylase activity.
The enzymatic assay of LSD1 activity is based on Time Resolved-Fluorescence Resonance Energy Transfer (TR-FRET) detection.
The ability of the compounds disclosed herein to inhibit LSD1 activity was quantified and the respective IC50 value was determined.

| IC50 | SMILES |
| --- | --- |
| < 100 nM | CNC1CCN(c2nc(-c3ccc(C#N)c(F)c3)c(-c3ccc(OC)nc3)c(=O)n2C)CC1 [Example 58, 2-fluoro-4-[5-(6-methoxy-pyridin-3-yl)-1-methyl-2-(4-methylamino-piperidin-1-yl)-6-oxo-1,6-dihydro-pyrimidin-4-yl]-benzonitrile] |
| < 100 nM | COc1ccc(-c2c(-c3ccc(C#N)c(F)c3)nc(N3CCC(C)(N)CC3)n(C)c2=O)cc1F [Example 32, 4-[2-(4-amino-4-methyl-piperidin-1-yl)-5-(3-fluoro-4-methoxy-phenyl)-1-methyl-6-oxo-1,6-dihydro-pyrimidin-4-yl]-2-fluoro-benzonitrile] |
| < 100 nM | COc1ccc(-c2c(-c3ccc(C#N)c(F)c3)nc(N(C)C[C@@H]3CCNC3)n(C)c2=O)cc1 (stereo in doubt) [Example 56, 2-fluoro-4-[5-(4-methoxy-phenyl)-1-methyl-2-(methyl-pyrrolidin-3-ylmethyl-amino)-6-oxo-1,6-dihydro-pyrimidin-4-yl]-benzonitrile] |
| < 100 nM | Cn1c(N2CCC(N)CC2)nc(-c2ccc(C#N)cc2)c(-c2cnn(CC(F)(F)F)c2)c1=O [Example 36, 4-{2-(4-amino-piperidin-1-yl)-1-methyl-6-oxo-5-[1-(2,2,2-trifluoro-ethyl)-1H-pyrazol-4-yl]-1,6-dihydro-pyrimidin-4-yl}-benzonitrile] |
| < 100 nM | CNC(=O)c1ccc(-c2c(-c3ccc(C#N)c(F)c3)nc(N3CCC(N)CC3)n(C)c2=O)cn1 [Example 50, 5-[2-(4-amino-piperidin-1-yl)-4-(4-cyano-3-fluoro-phenyl)-1-methyl-6-oxo-1,6-dihydro-pyrimidin-5-yl]-pyridine-2-carboxylic acid methylamide] |
| < 100 nM | CNC1CCN(c2nc(-c3ccc(C#N)c(F)c3)c(-c3ccc(N(C)C)nc3)c(=O)n2C)CC1 [Example 83, 4-[5-(6-dimethylamino-pyridin-3-yl)-1-methyl-2-(4-methylamino-piperidin-1-yl)-6-oxo-1,6-dihydro-pyrimidin-4-yl]-2-fluoro-benzonitrile] |
| < 100 nM | CN(C)c1ccc(-c2c(-c3ccc(C#N)c(F)c3)nc(N3CCC(N)CC3)n(C)c2=O)cc1 [Example 59, 4-[2-(4-amino-piperidin-1-yl)-5-(4-dimethylamino-phenyl)-1-methyl-6-oxo-1,6-dihydro-pyrimidin-4-yl]-2-fluoro-benzonitrile] |
| < 100 nM | CNc1ccc(-c2c(-c3ccc(C#N)c(F)c3)nc(N3CCC(N)CC3)n(C)c2=O)cc1 [Example 90, 4-[2-(4-aminopiperidin-1-yl)-1-methyl-5-[4-(methylamino)phenyl]-6-oxopyrimidin-4-yl]-2-fluorobenzonitrile] |
| < 100 nM | C#Cc1c(-c2ccc(C#N)c(F)c2)nc(N2CCC(N)CC2)n(C)c1=O [Example 110] |
| < 100 nM | COc1ccc(-c2c(-c3ccc(C#N)c(F)c3)nc(NC[C@@H]3CCNC3)n(C)c2=O)cc1 [Example 52, 2-luoro-4-{5-(4-methoxy-phenyl)-1-methyl-6-oxo-2-[(3R)-(pyrrolidin-3-ylmethyl)-amino]-1,6-dihydro-pyrimidin-4-yl}-benzonitrile] |
| < 100 nM | Cn1c(N2CCC(N)CC2)nc(-c2ccc(C#N)c(F)c2)c(C#CC2CCCC2)c1=O [Example 14, 4-[2-(4-amino-piperidin-1-yl)-5-cyclopentylethynyl-1-methyl-6-oxo-1,6-dihydro-pyrimidin-4-yl]-2-fluoro-benzonitrile] |
| < 100 nM | COc1ccc(-c2c(-c3ccc(C#N)c(F)c3)nc(N3CCC(N)CC3)n(C)c2=O)cc1 [Example 6, 4-[2-(4-amino-piperidin-1-yl)-5-(4-methoxy-phenyl)-1-methyl-6-oxo-1,6-dihydro-pyrimidin-4-yl]-2-fluoro-benzonitrile] |
| < 100 nM | CN(C)c1ccc(-c2c(-c3ccc(C#N)c(F)c3)nc(N3CCCNCC3)n(C)c2=O)cn1 [Example 63, 4-[2-[1,4]diazepan-1-yl-5-(6-dimethylamino-pyridin-3-yl)-1-methyl-6-oxo-1,6-dihydro-pyrimidin-4-yl]-2-fluoro-benzonitrile] |
| < 100 nM | COc1ccc(-c2c(-c3ccc(C#N)c(F)c3)nc(NC3CCNCC3)n(C)c2=O)cc1 [Example 53, 2-fluoro-4-[5-(4-methoxy-phenyl)-1-methyl-6-oxo-2-(piperidin-4-ylamino)-1,6-dihydro-pyrimidin-4-yl]-benzonitrile] |
| < 100 nM | COc1ccc(-c2c(-c3ccc(C#N)c(F)c3)nc(N3CCC(N)CC3)n(CC(=O)O)c2=O)cc1 [Example 15, [2-(4-amino-piperidin-1-yl)-4-(4-cyano-3-fluoro-phenyl)-5-(4-methoxy-phenyl)-6-oxo-6H-pyrimidin-1-yl]-acetic acid] |
| < 100 nM | COc1ccc(-c2c(-c3ccc(C#N)cc3)nc(N3CCC(N)CC3)n(C)c2=O)cn1 [Example 3, 4-[2-(4-amino-piperidin-1-yl)-5-(6-methoxy-pyridin-3-yl)-1-methyl-6-oxo-1,6-dihydro-pyrimidin-4-yl]-benzonitrile] |
| < 100 nM | CN(C)c1ccc(-c2c(-c3ccc(C#N)c(F)c3)nc(N3CCC(N)CC3)n(C)c2=O)cn1 [Example 57, 4-[2-(4-amino-piperidin-1-yl)-5-(6-dimethylamino-pyridin-3-yl)-1-methyl-6-oxo-1,6-dihydro-pyrimidin-4-yl]-2-fluoro-benzonitrile] |
| 100 to 1000 nM | Cn1c(N2CCC(N)CC2)nc(-c2ccncc2)c(-c2ccc3c(ccn3C)c2)c1=O [Example 116, 2-(4-amino-piperidin-1-yl)-3-methyl-5-(1-methyl-1H-indol-5-yl)-6-pyridin-4-yl-3H-pyrimidin-4-one] |
| < 100 nM | COc1ccc(-c2c(-c3ccc(C#N)cc3)nc(NC[C@H]3CCNC3)n(C)c2=O)cc1F [Example 44, 4-{5-(3-fluoro-4-methoxy-phenyl)-1-methyl-6-oxo-2-[(3S)-(pyrrolidin-3-ylmethyl)-amino]-1,6-dihydro-pyrimidin-4-yl}-benzonitrile] |
| < 100 nM | Cn1c(N2CCC(N)CC2)nc(-c2ccc(C#N)c(F)c2)c(-c2cccc(F)c2)c1=O [Example 102, 4-[2-(4-aminopiperidin-1-yl)-5-(3-fluorophenyl)-1-methyl-6-oxopyrimidin-4-yl]-2-fluorobenzonitrile] |
| < 100 nM | CN(C)c1ccc(-c2c(-c3ccc(C#N)cc3)nc(N3CCCNCC3)n(C)c2=O)cn1 [Example 67, 4-[2-[1,4]diazepan-1-yl-5-(6-dimethylamino-pyridin-3-yl)-1-methyl-6-oxo-1,6-dihydro-pyrimidin-4-yl]-benzonitrile] |
| < 100 nM | CNc1ccc(-c2c(-c3ccc(C#N)c(F)c3)nc(N3CCC(N)CC3)n(C)c2=O)cc1F [Example 91, 4-[2-(4-aminopiperidin-1-yl)-5-[3-fluoro-4-(methylamino)phenyl]-1-methyl-6-oxopyrimidin-4-yl]-2-fluorobenzonitrile] |
| < 100 nM | CN(C)C1CCN(c2nc(-c3ccc(C#N)c(F)c3)c(-c3ccc4nn(C)cc4c3)c(=O)n2C)CC1 [Example 71, 4-[2-(4-dimethylamino-piperidin-1-yl)-1-methyl-5-(2-methyl-2H-indazol-5-yl)-6-oxo-1,6-dihydro-pyrimidin-4-yl]-2-fluoro-benzonitrile] |
| < 100 nM | COc1ccc(-c2c(-c3ccc(C#N)c(F)c3)nc(N3CCC(N)CC3)[nH]c2=O)cc1 [Example 122, 4-[2-(4-amino-piperidin-1-yl)-5-(4-methoxy-phenyl)-6-oxo-1,6-dihydro-pyrimidin-4-yl]-2-fluoro-benzonitrile] |
| < 100 nM | Cn1c(N2CCC(N)CC2)nc(-c2ccc(C#N)c(F)c2)c(-c2ccc(F)c(F)c2)c1=O [Example 104, 4-[2-(4-aminopiperidin-1-yl)-5-(3,4-difluorophenyl)-1-methyl-6-oxopyrimidin-4-yl]-2-fluorobenzonitrile] |
| < 100 nM | Cn1c(N2CCC(N)CC2)nc(-c2ccc(C#N)c(F)c2)c(-c2ccc(F)cc2)c1=O [Example 101, 4-[2-(4-aminopiperidin-1-yl)-5-(4-fluorophenyl)-1-methyl-6-oxopyrimidin-4-yl]-2-fluorobenzonitrile] |
| < 100 nM | COc1ccc(-c2c(-c3ccc(C#N)c(F)c3)nc(N3CCC(N(C)C)CC3)n(C)c2=O)cn1 [Example 92, 4-[2-[4-(dimethylamino)piperidin-1-yl]-5-(6-methoxypyridin-3-yl)-1-methyl-6-oxopyrimidin-4-yl]-2-fluorobenzonitrile] |
| < 100 nM | COc1ccc(-c2c(-c3ccc(C#N)c(F)c3)nc(N3CCNCC3)n(C)c2=O)cc1F [Example 47, 2-fluoro-4-[5-(3-fluoro-4-methoxy-phenyl)-1-methyl-6-oxo-2-piperazin-1-yl-1,6-dihydro-pyrimidin-4-yl]-benzonitrile] |
| < 100 nM | COc1ccc(-c2c(-c3ccc(C#N)c(F)c3)nc(N3CCC4(CCNC4)CC3)n(C)c2=O)cc1F [Example 22, 4-[2-(2,8-diaza-spiro[4.5]dec-8-yl)-5-(3-fluoro-4-methoxy-phenyl)-1-methyl-6-oxo-1,6-dihydro-pyrimidin-4-yl]-2-fluoro-benzonitrile] |
| < 100 nM | Cn1c(N2CCC(N)CC2)nc(-c2ccc(C#N)c(F)c2)c(-c2ccc3[nH]ccc3c2)c1=O [Example 73, 4-[2-(4-amino-piperidin-1-yl)-5-(1H-indol-5-yl)-1-methyl-6-oxo-1,6-dihydro-pyrimidin-4-yl]-2-fluoro-benzonitrile] |

| SMILES | IC50 |
| --- | --- |
| CCn1c(N2CCC(N)CC2)nc(-c2ccc(C#N)c(F)c2)cc1=O [Example 13, 4-[2-(4-amino-piperidin-1-yl)-1-ethyl-6-oxo-1,6-dihydro-pyrimidin-4-yl]-2-fluoro-benzonitrile] | 100 to 1000 nM |
| Cn1c(N2CCC(N)CC2)nc(-c2ccc(C#N)c(F)c2)c(-c2ccc(C(=O)O)cc2)c1=O [Example 39, 4-[2-(4-aminopiperidyl)-6-(4-cyano-3-fluorophenyl)-3-methyl-4-oxo-3-hydropyrimidin-5-yl]benzoic acid] | 100 to 1000 nM |

Reference: patent US9573930B2 (Quanticel Pharmaceuticals, Inc., priority 2014, dated 2017)
